Calls of active or inactive are those of the source. No rule for the calls is given here.

The target of the assay is Serine/threonine-protein kinase mTOR (Homo sapiens) (UniProt P42345). The assay can be described thus: mTOR FRB domain ligand binding – biophysical, NMR (AID 1648). As to conditions: NMR binding to FRB domain, chemical shift.
Serine/threonine-protein kinase mTOR (Homo sapiens), sequence (P42345 2015-2114): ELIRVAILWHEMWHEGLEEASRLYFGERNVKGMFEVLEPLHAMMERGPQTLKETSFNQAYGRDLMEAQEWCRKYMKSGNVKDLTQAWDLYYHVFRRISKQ

With `Cc1cc(C(=O)NCc2cccnc2)no1`, the Kd is > 4 mM (inactive).

Turning to `CSc1nc2nc(C)cc(=O)n2[nH]1`, the Kd was > 4 mM (inactive). The result for `COc1ccc(S(=O)(=O)NCCO)cc1` reads > 4 mM (inactive); that for `COc1cc2c(cc1O)CCNC2C` (centres undefined), > 4 mM (inactive). In the case of `CNC(=O)Cn1c(=O)n(C)c2ccccc21`, the Kd was > 4 mM (inactive).

Turning to `Cc1nn(C)c(Cl)c1C(O)c1c(C)nn(C)c1Cl`, the Kd is > 4 mM (inactive). With `CC(=O)Nc1ccc(S(=O)(=O)NC2=NCCS2)cc1` the figure was > 4 mM (inactive). For the compound `CC(C)=CC(=O)Nc1ccc2c(c1)OCO2`, the Kd is > 4 mM (inactive).

For `COc1ccc(S(N)(=O)=O)cc1`, the Kd was > 4 mM (inactive). On to `CCCOn1nnnc1-c1ccccc1`, for which the Kd is > 4 mM (inactive). Turning to `Cc1nnc2sc(-c3csc4c3CCCC4)nn12`, the Kd is > 4 mM (inactive). The result for `C=CCNC(=O)c1nn2cccnc2c1Cl` reads > 4 mM (inactive); that for `CCCCCC1C(=O)CCC1CC(=O)OC` (centres undefined), > 4 mM (inactive); that for `Cc1nc(-c2cccc(-c3noc(C)n3)c2)no1`, > 4 mM (inactive). With `Cc1ccc(NC(=O)c2ccccc2)s1` the figure was > 4 mM (inactive); with `O=c1cnnc(SCCc2ccccc2)[nH]1`, > 4 mM (inactive); with `CN1CCC(N2CCOCC2)CC1`, > 4 mM (inactive). The result for `CSc1ccccc1NC(=O)c1ccc(C)o1` reads > 4 mM (inactive); that for `Nc1nnc(-c2ccncc2)s1`, > 4 mM (inactive).

Consider `CC1=CC(=O)NC2C=CC=CC12` (centres undefined), for which the Kd is > 4 mM (inactive). In the case of `CN1CCCCC1c1ccc(-c2cccnc2)nc1` (centres undefined), the Kd was > 4 mM (inactive). With `CC(=O)Nn1cc2c(=O)n(C)c(=O)n(C)c2c1` the figure was > 4 mM (inactive); with `Cc1cc(NC(=O)CSc2nncn2C)no1`, > 4 mM (inactive). With `NC(=O)Cn1cnc2ccccc21` the figure was > 4 mM (inactive).

For the compound `C/C(N)=C/C(=O)N1CCCCC1`, the Kd was > 4 mM (inactive). For `O=C(Nn1cnnc1)c1csc2ccccc12`, the Kd was > 4 mM (inactive).

Take `Cc1ccc(C(C)C)cc2c(C)ccc1-2`: the Kd is > 4 mM (inactive). With `OCc1ccc(N2CCOCC2)nc1` the figure was > 4 mM (inactive); with `COc1cc(OC)c(OC)cc1C=O`, > 4 mM (inactive). As to `CCOC(=O)c1c(C)cc(OC)cc1O`, the Kd was > 4 mM (inactive). For `C/C=C(/C)C(=O)O[C@H]1CC[C@@]2(C)[C@@H]3CC[C@H]4[C@]5(O)C[C@H](O)[C@@]6(O)[C@@H](CN7C[C@@H](C)CC[C@H]7[C@@]6(C)O)[C@]5(O)C[C@@]42OC13O`, the Kd is > 4 mM (inactive). On to `CSc1ncnc2nc[nH]c12`, for which the Kd was > 4 mM (inactive). Consider `Cc1noc(C)c1CSc1nc2ccccc2[nH]1`, for which the Kd is > 4 mM (inactive). The result for `O=C(O)C1Cc2c([nH]c3ccccc23)CN1` (centres undefined) reads > 4 mM (inactive); that for `CN(C)c1nc(N)nc(-c2nc3ccccc3s2)n1`, > 4 mM (inactive); that for `Cc1cc(NS(=O)(=O)Cc2ccccc2)no1`, > 4 mM (inactive).

Consider `c1ccc(CCc2nc(-c3cccnc3)no2)cc1`, for which the Kd was > 4 mM (inactive). For `O=C(NCC1CCNCC1)c1ccncc1`, the Kd is > 4 mM (inactive). The result for `O=c1[nH]c2ccc(S(=O)(=O)NC3CC3)cc2[nH]1` reads > 4 mM (inactive); that for `Cc1occc1C(=O)Nc1ccc(C(N)=O)cc1`, > 4 mM (inactive); that for `NC(=O)CSc1nnc(-c2ccncc2)o1`, > 4 mM (inactive). With `O=C(CSc1ncnc2ccccc12)NCCCO`, the Kd was > 4 mM (inactive). The result for `O=C1NC(=S)N/C1=C/c1ccsc1` reads > 4 mM (inactive); that for `O=C(Nc1ccon1)c1ccc(Cl)s1`, > 4 mM (inactive); that for `Cc1ccc(C(=O)Nc2ccncc2)o1`, > 4 mM (inactive). Regarding `Cn1c(SCC(N)=O)nnc1-c1cccnc1`, the Kd is > 4 mM (inactive). For the compound `CCOC(=O)CN1C(=O)c2ccccc2C1=O`, the Kd is > 4 mM (inactive). With `CN1C(=O)CC[C@H]1c1cccnc1` the figure was > 4 mM (inactive). With `CC(=O)Oc1cc(OC(C)=O)c2c(c1)O[C@H](c1ccc(OC(C)=O)c(OC(C)=O)c1)[C@H](OC(C)=O)C2` the figure was > 4 mM (inactive); with `CC1(C)C=CC(=O)[C@@]2(C)C1CC(=O)[C@]1(C)C2CC[C@@]2(C)[C@H](c3ccoc3)OC(=O)C3OC321` (some centres undefined), > 4 mM (inactive). For `CCOC(=O)c1ccc(F)cc1F`, the Kd was > 4 mM (inactive). As for `Cn1c(O)c(C2=NC(=S)NC2=O)c2ccccc21`, the Kd was > 4 mM (inactive). Regarding `O=P(c1ccccc1)(c1ccccc1)C1CCOCC1`, the Kd is > 4 mM (inactive). With `O=C(O)c1ccc(-c2cccs2)cc1`, the Kd was > 4 mM (inactive). Regarding `c1cc2c(cc1[C@H]1OC[C@H]3[C@@H]1CO[C@H]3c1ccc3c(c1)OCO3)OCO2`, the Kd is > 4 mM (inactive). In the case of `C/C(O)=c1/sc2cc(C)nc(=N)n2c1=O`, the Kd was > 4 mM (inactive). With `COc1cc(OC)c2c(=O)c(-c3ccc4c(c3)OCO4)coc2c1` the figure was > 4 mM (inactive); with `Cc1c(/C=N/O)cnn1C`, > 4 mM (inactive).

Consider `Nc1ccccc1-c1nc2ccccc2[nH]1`, for which the Kd was > 4 mM (inactive). `C[C@@H]1O[C@@H](O[C@H]2[C@@H](Oc3cc(O)c4c(c3)O[C@H](c3ccc(O)cc3)CC4=O)O[C@H](CO)[C@@H](O)[C@@H]2O)[C@H](O)[C@H](O)[C@H]1O`: the Kd is > 4 mM (inactive).

For `O=C(Nn1cnnc1)c1ccccc1-c1ccccc1`, the Kd is > 4 mM (inactive). Consider `Cc1nc2ccccc2c2c1C(=O)N(C)C2=O`, for which the Kd is > 4 mM (inactive). Regarding `CC(=O)Nc1ccc(S(=O)(=O)Nc2cc(C)on2)cc1`, the Kd was > 4 mM (inactive).

Consider `O=c1[nH]c(NCCO)nnc1Cc1ccccc1`, for which the Kd is > 4 mM (inactive). As to `CC(=O)Oc1ccc2c(c1)c(C(C)=O)c(C)n2C`, the Kd is > 4 mM (inactive). For `CSc1nc(C)c(Oc2ccccc2)c(=O)n1C`, the Kd was > 4 mM (inactive).

In the case of `CCOCC(=O)NCc1n[nH]c(=O)c2ccccc12`, the Kd was > 4 mM (inactive). Consider `CC(=O)C1CCC2C3CCC4C[C@H](O)CCC4(C)C3C[C@H](O)C12C` (some centres undefined), for which the Kd is > 4 mM (inactive). With `Cc1nnc2ccc(N3CCCC3)nn12` the figure was > 4 mM (inactive). `Cc1c(C(=O)OC(C)C)[nH]c2c1C(=O)CCC2`: the Kd is > 4 mM (inactive). The result for `C=C1C2CC[C@@]3(C)[C@H](c4ccoc4)OC(=O)C[C@]13O[C@H]1C[C@H](OC(C)=O)C(C)(C)[C@H](CC(=O)OC)[C@@]21C` reads > 4 mM (inactive).

In the case of `CN1CCC[C@H]1c1cccnc1`, the Kd is > 4 mM (inactive). In the case of `NC(=O)CC1NC(=O)c2ccccc21` (centres undefined), the Kd is > 4 mM (inactive). With `Cc1ccc2cc(C(=O)O)ccc2n1` the figure was > 4 mM (inactive).

As usually defined, the Kd is the concentration at which binding is half-saturated.

For the origin of these results see PubChem BioAssay AID1648 (Sanford-Burnham Center for Chemical Genomics, 2009).
